Experimental data published in ChEMBL document CHEMBL4609989, “Synthesis and antileishmanial activity of fluorinated rhodacyanine analogues: The 'fluorine-walk' analysis” (Bioorg Med Chem, 2020).
pIC50: −log10 of the molar value.

What was measured:
Leishmania orientalis [1] = experiment: Antileishmanial activity against Leishmania orientalis MHOM/TH/2010/PCM2 axenic amastigotes at 0.25 uM incubated for 72 hrs by resazurin dye based colorimetric assay relative to control; type: functional; conditions: for inhibition at 0.25 µM: Leishmania orientalis, MHOM/TH/2010/PCM2, 72 h
[2] = system: Leishmania martiniquensis; experiment: Antileishmanial activity against Leishmania martiniquensis MHOM/MQ/92/MAR promastigote at 0.25 uM incubated for 72 hrs by resazurin dye based colorimetric assay relative to control; type: functional; conditions: for inhibition at 0.25 µM: Leishmania martiniquensis, MHOM/MQ/92/MAR, 72 h
[3] = system: Leishmania martiniquensis; experiment: Antileishmanial activity against Leishmania martiniquensis MHOM/MQ/92/MAR promastigote at 0.1 uM incubated for 72 hrs by resazurin dye based colorimetric assay relative to control; type: functional; conditions: for inhibition at 0.1 µM: Leishmania martiniquensis, MHOM/MQ/92/MAR, 72 h
Leishmania orientalis [4] = experiment: Antileishmanial activity against Leishmania orientalis MHOM/TH/2010/PCM2 axenic amastigotes incubated for 72 hrs by resazurin dye based colorimetric assay; type: functional, organism-based
J774.A1 [5] = experiment: Cytotoxicity against mouse J774A.1 cells assessed as reduction in cell viability at 4.0 uM incubated for 72 hrs by colorimetric assay relative to control; type: cell-based; conditions: j774.a1, 72 h
Leishmania orientalis [6] = experiment: Antileishmanial activity against Leishmania orientalis MHOM/TH/2010/PCM2 promastigote at 0.25 uM incubated for 72 hrs by resazurin dye based colorimetric assay relative to control; type: functional; conditions: for inhibition at 0.25 µM: Leishmania orientalis, MHOM/TH/2010/PCM2, 72 h
J774.A1 [7] = experiment: Cytotoxicity against mouse J774A.1 cells assessed as reduction in cell viability at 0.25 uM incubated for 72 hrs by colorimetric assay relative to control; type: cell-based; conditions: j774.a1, 72 h
Leishmania orientalis [8] = experiment: Antileishmanial activity against Leishmania orientalis MHOM/TH/2010/PCM2 promastigote at 0.1 uM incubated for 72 hrs by resazurin dye based colorimetric assay relative to control; type: functional; conditions: for inhibition at 0.1 µM: Leishmania orientalis, MHOM/TH/2010/PCM2, 72 h
Leishmania orientalis [9] = experiment: Antileishmanial activity against Leishmania orientalis MHOM/TH/2010/PCM2 promastigote incubated for 72 hrs by resazurin dye based colorimetric assay; type: functional, organism-based
[10] = system: Leishmania martiniquensis; experiment: Antileishmanial activity against Leishmania martiniquensis MHOM/MQ/92/MAR promastigote incubated for 72 hrs by resazurin dye based colorimetric assay; type: functional, organism-based
[11] = system: Leishmania martiniquensis; experiment: Potency index, ratio of IC50 for miltefosine to IC50 for test compound for antileishmanial activity against Leishmania martiniquensis MHOM/MQ/92/MAR promastigote incubated for 72 hrs by resazurin dye based colorimetric assay; type: functional
[12] = Leishmania orientalis, MHOM/TH/2010/PCM2, 72 h
[13] = Leishmania martiniquensis, MHOM/MQ/92/MAR, 72 h

Structure (SMILES) | inhibition at 0.25 µM (Leishmania orientalis [1]) [%] | inhibition at 0.25 µM [2] [%] | inhibition at 0.1 µM [3] [%] | pIC50 (Leishmania orientalis [4]; [12]) | Activity (J774.A1 [5]) [%] | inhibition at 0.25 µM (Leishmania orientalis [6]) [%] | Activity (J774.A1 [7]) | inhibition at 0.1 µM (Leishmania orientalis [8]) [%] | pIC50 (Leishmania orientalis [9]; [12]) | pIC50 [10, 13] | inhibition (INH) (Leishmania orientalis [1]) [%] | inhibition (INH) [2] [%] | inhibition (INH) [3] [%] | pIC50 (Leishmania orientalis [4]) | inhibition (INH) (Leishmania orientalis [6]) [%] | pIC50 [10] | inhibition (INH) (Leishmania orientalis [8]) [%] | pIC50 (Leishmania orientalis [9]) | Ratio IC50 [11]
CCn1c(=O)/c(=C/C=C2\Sc3ccc(F)cc3N2C)s/c1=C\c1sc2ccc(F)cc2[n+]1C.[Cl-] | 87.9 | 79.8 | 56.4 | 7.10 | 13.8 | 81.5 | Non-Toxic | 57.5 | 6.79 |  |  |  |  |  |  |  |  |  | 
CCn1c(=O)/c(=C/C=C2\Sc3ccccc3N2C)s/c1=C\c1sc2cc(OC(F)(F)F)ccc2[n+]1C.[Cl-] | 59.2 | 27.1 | 8.7 |  | 48.6 | 60.9 | Non-Toxic | 12.5 |  |  |  |  |  |  |  |  |  |  | 
CCn1c(=O)/c(=C/C=C2\Sc3cc(F)ccc3N2C)s/c1=C\c1sc2ccc(F)cc2[n+]1C.[Cl-] | 93 | 93.4 | 54.3 | 7.07 | 20.7 | 93 | Non-Toxic | 32.3 |  | 6.85 |  |  |  |  |  |  |  |  | 
CCn1c(=O)/c(=C/C=C2\Sc3ccccc3N2C)s/c1=C\c1sc2cc(F)c(F)cc2[n+]1C.[Cl-] | 92.8 | 91.2 | 80.6 | 7.11 | 18.6 | 89.5 | Non-Toxic | 61.6 | 6.94 | 6.97 |  |  |  |  |  |  |  |  | 
CCn1c(=O)/c(=C/C=C2\Sc3ccccc3N2C)s/c1=C\c1sc2cc(C(F)(F)F)ccc2[n+]1C.[Cl-] | 71.1 | 24.9 | 10.5 |  | 33.3 | 87.6 | 0.5% | 39 |  |  |  |  |  |  |  |  |  |  | 
CCn1c(=O)/c(=C/C=C2\Sc3ccccc3N2C)s/c1=C\c1sc2cc(F)ccc2[n+]1C.[Cl-] | 78.5 | 71.1 | 57.1 | 6.70 | 41.3 | 95.4 | Non-Toxic | 85.7 | 7.40 |  |  |  |  |  |  |  |  |  | 
CCn1c(=O)/c(=C/C=C2\Sc3ccccc3N2C)s/c1=C\c1sc2c(F)cccc2[n+]1C.[Cl-] | 42.9 | 85.2 | 41.1 |  | 88.5 | 88.9 | Non-Toxic | 13.9 |  |  |  |  |  |  |  |  |  |  | 
CCn1c(=O)/c(=C/C=C2\Sc3ccc(F)cc3N2C)s/c1=C\c1sc2ccccc2[n+]1C.[Cl-] | 92.2 | 89.2 | 76.9 | 6.87 | 37 | 90.4 | Non-Toxic | 50.1 | 6.88 | 6.86 |  |  |  |  |  |  |  |  | 
CCn1c(=O)/c(=C/C=C2\Sc3cc(F)ccc3N2C)s/c1=C\c1sc2cc(F)ccc2[n+]1C.[Cl-] | 62.1 | 62.9 | 17.6 |  | 46 | 76 | Non-Toxic | 1.9 |  |  |  |  |  |  |  |  |  |  | 
CCn1c(=O)/c(=C/C=C2\Sc3ccccc3N2C)s/c1=C\c1sc2ccc(F)cc2[n+]1C.[Cl-] |  |  |  |  | 26.9 |  | Non-Toxic |  |  |  | 86.5 | 89.3 | 82.8 | 7.10 | 91.7 | 7.07 | 66.2 | 6.98 | 200
